Patent US20240059680A1, “N-(2,3-DIHYDRO-1,4-BENZOXAZIN-4-YL)-3-ISOPROPYL-7-(2,3,5-TRIFLUOROPHENYL)BENZO-THIOPHENE-2-CARBOXAMIDE DERIVATIVES AND SIMILAR COMPOUNDS FOR THE TREATMENT OF HEARTWORM INFECTIONS” (ELANCO TIERGESUNDHEIT AG, priority 2020, published 2024)
Values after ≈ are worked out from the molar mass of the structure shown. Read-outs that look alike come from different tables or passages of the source.

Tests used:
[1] = system: Adult Nippostrongylus brasiliensis; assay: In Vitro Assay 5: Nippostrongylus brasiliensis (NIPOBR), acetylcholine esterase readout; format: cell-based
Procedure: In Vitro Assay 5: Nippostrongylus Brasiliensis (NIPOBR)
Adult Nippostrongylus brasiliensis were washed with saline buffer containing 100 U/ml penicillin, 0.1 mg/ml streptomycin and 2.5 μg/ml amphotericin B. Test compounds were dissolved in DMSO and worms were incubated in medium in a final concentration of 10 μg/ml (10 ppm), 1 μg/ml (1 ppm) and 0.1 μg/ml (0.1 ppm) respectively. An aliquot of the medium was used to determine the acetylcholine esterase activity in comparison to a negative control. The principle of measuring acetylcholine esterase as readout for anthelmintic activity was described in Rapson et al (1986) and Rapson et al (1987).
Based on the evaluation of a wide concentration range, concentration-response curves as well as EC50-values were calculated.

D. immitis Slo-1 = D. immitis Slo-1 (Dirofilaria immitis, UniProt I0DFK5); assay: In Vitro Assay 2: D. immitis Slo-1, membrane potential measurement in recombinant CHO cell line; format: cell-based
[2] = system: Dirofilaria immitis third-stage larvae; assay: In Vitro Assay 4: Dirofilaria immitis (DIROIM L4) larval motility; format: cell-based; settings: 72 h
C. elegans Slo-1a = C. elegans Slo-1a (Caenorhabditis elegans, UniProt Q95V25)
Procedure: For transfection with plasmid DNA to express C. elegans Slo-1a (accession number AAL28102) CHO cells were passaged to 40% confluence before adding the transfection solution to the cell culture. The transfection solution included 300 μL OptiMEM (Life Technologies, Nr.: 31985), 2 μL (=6 μg) of plasmid DNA containing the C. elegans Slo-1a gene and 9 μL FugeneHD (Promega, Nr.: E2311), and was added to the cells prior to incubation for 48 hours at 37° C., 5% CO2. The transfection medium was exchanged for the selection medium which contains additional G418 (2 mg/ml, Invitrogen, Nr.: 10131) and the cells were seeded into 384 well plates (300 cells/well). After a few weeks, the remaining surviving cells were tested with a voltage sensitive dye (Membrane Potential Assay Kit, Molecular Devices Nr.: R8034) for K+ channel expression. Positive cell clones were purified by the limited dilution technique. For this the clone with the highest and most robust signal in the voltage sensitive dye assay was further subcloned (incubated) in 384 well plates (0.7 cells/well) to obtain clonal purity. This generated a final stable CHO cell line expressing the C. elegans Slo-1a.
Cell culture conditions Cells were cultured at 37° C. and 5% CO2 in MEMalpha with Gutamax I (Invitrogen, Nr.: 32571), supplemented with 10% (v/v) heat inactivated fetal bovine serum (Invitrogen, Nr.: 10500), G418 (1 mg/ml, Invitrogen, Nr.: 10131). Cells were detached using Accutase (Sigma, Nr.: A6964).
Membrane Potential Measurements
Laboratory compound testing was performed on 384-well microtiter plates (MTPs, Greiner, Nr.: 781092). 8000 cells/well were plated onto 384-well MTPs and cultured for 20 to 24 hours at 37° C. and 5% CO2. After removal of the cell culture medium, the cells were washed once with tyrode (150 mM NaCl, 0.3 mM KCl, 2 mM CaCl2, 1 m M MgCl2, 0.8 mM NaH2PO4, 5 mM Glucose, 28 mM Hepes, pH 7.4) and then loaded with the voltage sensitive dye of the Membrane Potential Assay Kit diluted in tyrode for 1 h at room temperature. After starting the measurement of fluorescence using a FLIPR Tetra (Molecular Devices, Exc. 510-545 nm, Emm. 565-625 nm), test compounds were added followed by the addition of KCl tyrode (final assay concentration: 70 mM KCl, 2 mM CaCl2, 1 mM MgCl2, 0.8 mM NaH2PO4, 5 mM Glucose, 28 mM Hepes, pH 7.4, including the voltage sensitive dye). The measurement was completed after 7 minutes.
EC50 values were calculated using a four-parameter plotting by the Scilligence ELN/Regmol Software Tool, Bioassay.

[3] = system: Dirofilaria immitis microfilariae; assay: In Vitro Assay 3: Dirofilaria immitis microfilariae (DIROIM L1) motility; format: cell-based; settings: 72 h
[4] = acetylcholine esterase activity in medium vs negative control, adult worms, read-out: EC50

Sequence of C. elegans Slo-1a (Q95V25 whole entry): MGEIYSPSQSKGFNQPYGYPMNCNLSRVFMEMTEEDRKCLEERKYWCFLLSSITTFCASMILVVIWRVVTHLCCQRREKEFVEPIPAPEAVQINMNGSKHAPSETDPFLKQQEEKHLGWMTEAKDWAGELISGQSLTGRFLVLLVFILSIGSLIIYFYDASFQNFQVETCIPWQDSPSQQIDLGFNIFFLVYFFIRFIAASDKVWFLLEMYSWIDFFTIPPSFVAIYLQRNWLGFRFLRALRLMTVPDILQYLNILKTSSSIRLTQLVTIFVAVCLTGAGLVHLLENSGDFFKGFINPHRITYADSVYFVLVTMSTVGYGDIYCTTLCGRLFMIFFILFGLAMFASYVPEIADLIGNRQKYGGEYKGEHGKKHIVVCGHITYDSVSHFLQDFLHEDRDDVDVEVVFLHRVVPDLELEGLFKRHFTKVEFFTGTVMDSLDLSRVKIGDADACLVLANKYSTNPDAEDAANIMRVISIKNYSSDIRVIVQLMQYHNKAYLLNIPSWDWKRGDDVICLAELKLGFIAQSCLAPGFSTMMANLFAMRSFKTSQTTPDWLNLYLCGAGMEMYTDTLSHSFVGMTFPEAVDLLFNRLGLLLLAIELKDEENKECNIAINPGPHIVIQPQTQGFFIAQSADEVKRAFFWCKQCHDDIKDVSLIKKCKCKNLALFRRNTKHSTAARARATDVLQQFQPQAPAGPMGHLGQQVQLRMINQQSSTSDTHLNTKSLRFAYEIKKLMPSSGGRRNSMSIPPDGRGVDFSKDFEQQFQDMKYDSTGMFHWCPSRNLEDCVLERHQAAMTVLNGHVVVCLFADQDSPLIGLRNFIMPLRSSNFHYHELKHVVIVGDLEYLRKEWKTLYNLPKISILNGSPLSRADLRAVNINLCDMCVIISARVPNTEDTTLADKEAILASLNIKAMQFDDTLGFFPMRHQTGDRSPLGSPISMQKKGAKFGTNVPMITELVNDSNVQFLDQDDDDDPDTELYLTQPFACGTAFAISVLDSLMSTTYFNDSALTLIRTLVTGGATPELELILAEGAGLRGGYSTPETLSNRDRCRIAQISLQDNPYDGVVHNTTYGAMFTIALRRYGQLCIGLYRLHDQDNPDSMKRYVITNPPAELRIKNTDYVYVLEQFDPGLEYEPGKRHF
Sequence of D. immitis Slo-1 (I0DFK5 1-1119): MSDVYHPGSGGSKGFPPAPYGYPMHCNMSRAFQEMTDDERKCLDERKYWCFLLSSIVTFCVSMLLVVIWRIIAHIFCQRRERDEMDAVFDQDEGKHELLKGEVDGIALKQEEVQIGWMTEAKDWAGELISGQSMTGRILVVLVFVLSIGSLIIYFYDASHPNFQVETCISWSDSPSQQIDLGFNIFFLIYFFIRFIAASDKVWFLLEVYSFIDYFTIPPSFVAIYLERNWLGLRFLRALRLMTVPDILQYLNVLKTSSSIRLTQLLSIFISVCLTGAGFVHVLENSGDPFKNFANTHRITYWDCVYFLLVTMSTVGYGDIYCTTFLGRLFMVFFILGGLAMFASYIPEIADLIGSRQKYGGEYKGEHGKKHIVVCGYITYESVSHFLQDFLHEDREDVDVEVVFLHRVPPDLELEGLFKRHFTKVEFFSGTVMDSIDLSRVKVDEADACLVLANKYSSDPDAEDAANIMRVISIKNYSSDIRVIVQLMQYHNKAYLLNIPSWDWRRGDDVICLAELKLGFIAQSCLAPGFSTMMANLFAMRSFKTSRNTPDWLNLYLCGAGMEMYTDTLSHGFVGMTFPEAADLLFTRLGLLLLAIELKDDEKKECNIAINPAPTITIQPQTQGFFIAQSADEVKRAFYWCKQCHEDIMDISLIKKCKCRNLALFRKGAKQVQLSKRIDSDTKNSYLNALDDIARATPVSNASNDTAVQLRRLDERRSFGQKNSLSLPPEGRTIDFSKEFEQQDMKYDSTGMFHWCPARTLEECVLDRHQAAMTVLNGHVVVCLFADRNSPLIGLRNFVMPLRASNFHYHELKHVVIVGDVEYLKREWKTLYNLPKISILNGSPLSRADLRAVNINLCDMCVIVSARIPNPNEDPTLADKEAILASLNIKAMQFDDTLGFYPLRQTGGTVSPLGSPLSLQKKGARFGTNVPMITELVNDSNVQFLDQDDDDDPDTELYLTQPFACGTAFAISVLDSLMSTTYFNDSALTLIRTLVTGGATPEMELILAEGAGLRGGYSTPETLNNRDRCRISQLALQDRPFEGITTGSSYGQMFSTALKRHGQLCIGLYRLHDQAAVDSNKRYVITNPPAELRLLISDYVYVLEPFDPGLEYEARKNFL

Structure (SMILES) | EC50 [1, 4] [µg/mL] | EC50 (D. immitis Slo-1) [nM] | EC50 [2] [µg/mL] | EC50 (C. elegans Slo-1a) [nM] | EC50 [3] [µg/mL] | EC50 [1] [µg/mL]
CC(C)c1c(C(=O)NN2CCOc3ccccc32)cnc2c1nnn2-c1cc(F)cc(F)c1F [Example 14.1, N-(2,3-Dihydro-4H-benzo[b][1,4]oxazin-4-yl)-7-isopropyl-3-(2,3,5-trifluorophenyl)-3H-[1,2,3]triazolo[4,5-b]pyridine-6-carboxamide] | > 1 | > 1000 | > 1 | > 1000 | < 0.1 | 
CC(C)(O)c1c(C(=O)NN2CCOc3ccccc32)sc2c(-c3cc(F)cc(F)c3F)c(F)cnc12 [Example 6.1, N-(2,3-Dihydro-4H-benzo[b][1,4]oxazin-4-yl)-6-fluoro-3-(2-hydroxypropan-2-yl)-7-(2,3,5-trifluorophenyl)thieno[3,2-b]pyridine-2-carboxamide] |  | < 100 | < 0.1 | < 100 | < 0.1 | < 0.1
O=C(NN1CCOc2ccccc21)c1sc2c(-c3cc(F)cc(F)c3F)ccnc2c1N1CCOCC1 [Example 6.8, N-(2,3-Dihydro-4H-benzo[b][1,4]oxazin-4-yl)-3-morpholino-7-(2,3,5-trifluoro-phenyl)thieno[3,2-b]pyridine-2-carboxamide] | > 1 | 100 to 1000 | < 0.1 | < 100 | < 0.1 | 
Cc1nn(-c2cc(F)cc(F)c2F)c2ncc(C(=O)NN3CCOc4ccccc43)c(C(C)C)c12 [Example 10.2, N-(2,3-Dihydro-4H-benzo[b][1,4]oxazin-4-yl)-4-isopropyl-3-methyl-1-(2,3,5-trifluorophenyl)-1H-pyrazolo[3,4-b]pyridine-5-carboxamide] | > 1 | > 1000 | > 1 | > 1000 | 0.1 to 1 (≈ 0.208 to 2.08 µM) | 
CC(C)c1c(C(=O)NN2CCOc3ccccc32)sc2c(-c3cc(F)cc(F)c3F)ccnc12 [6,7] |  |  |  |  |  | < 0.1
Cc1nn2c(C(C)(C)O)c(C(=O)NN3CCOc4ccccc43)sc2c1-c1cc(F)cc(F)c1F [Example 4.3, N-(2,3-Dihydro-1,4-benzoxazin-4-yl)-3-(2-hydroxypropan-2-yl)-6-methyl-7-(2,3,5-trifluorophenyl)pyrazolo [3,2-b][1,3]thiazole-2-carboxamide] | 0.1 to 1 (≈ 0.199 to 1.99 µM) | 100 to 1000 | < 0.1 | < 100 | < 0.1 | 
O=C(NN1CCOc2ccccc21)c1sc2c(-c3cc(F)cc(F)c3F)nccc2c1N1CCOCC1 [Example 2.1, N-(2,3-Dihydro-1,4-benzoxazin-4-yl)-3-morpholino-7-(2,3,5-trifluorophenyl)thieno-[2,3-c]pyridine-2-carboxamide] | > 1 | 100 to 1000 | 0.1 to 1 (≈ 0.19 to 1.9 µM) | 100 to 1000 | 0.1 to 1 (≈ 0.19 to 1.9 µM) | 
Cc1nn2c(C(C)C)c(C(=O)NN3CCOc4ccccc43)cnc2c1-c1c(F)cccc1F [Example 3.1, 3-(2,6-Difluorophenyl)-N-(2,3-dihydro-1,4-benzoxazin-4-yl)-7-isopropyl-2-methyl-pyrazolo[1,5-a]pyrimidine-6-carboxamide] | > 1 | 100 to 1000 | < 0.1 | < 100 | < 0.1 | 
CC(C)c1c(C(=O)NN2CCOc3ccccc32)ccc2c1nnn2-c1cc(F)cc(F)c1F [Example 16.1, N-(2,3-Dihydro-4H-benzo[b][1,4]oxazin-4-yl)-4-isopropyl-1-(2,3,5-trifluorophenyl)-1H-benzo[d][1,2,3]triazole-5-carboxamide] | > 1 | > 1000 | > 1 | > 1000 | > 1 | 
CC(C)c1c(C(=O)NN2CCOc3ccccc32)oc2c(-c3cc(F)cc(F)c3F)cccc12 [Example 19.1, N-(2,3-Dihydro-1,4-benzoxazin-4-yl)-3-(1-methylethyl)-7-[2,3,5-tris(fluoranyl)-phenyl]benzofuran-2-carboxamide] | 0.1 to 1 (≈ 0.214 to 2.14 µM) |  | < 0.1 |  |  | 
CC(C)c1c(C(=O)NN2CCOc3ccccc32)cnc2c(-c3cc(F)cc(F)c3F)ncn12 [Example 11.1, N-(2,3-Dihydro-4H-benzo[b][1,4]oxazin-4-yl)-4-isopropyl-8-(2,3,5-trifluoro-phenyl)-imidazo[1,5-a]pyrimidine-3-carboxamide] | > 1 | > 1000 | < 0.1 | 100 to 1000 | 0.1 to 1 (≈ 0.214 to 2.14 µM) | 
O=C(NN1CCOc2ccccc21)c1sc2c(-c3cc(F)cc(F)c3F)c(F)cnc2c1N1CC(F)C1 [Example 6.2, N-(2,3-dihydro-4H-benzo[b][1,4]oxazin-4-VI)-6-fluoro-3-(3-fluoroazetidin-1-yl)-7-(2,3,5-trifluorophenyl)thieno[3,2-b]pyridine-2-carboxamide] | > 1 | > 1000 | 0.1 to 1 (≈ 0.188 to 1.88 µM) | 100 to 1000 | < 0.1 | 
O=C(NN1CCOc2ccccc21)c1sc2c(-c3cc(F)cc(F)c3F)c(F)cnc2c1N1CCOCC1 [Example 6.4, N-(2,3-Dihydro-4H-benzo[b][1,4]oxazin-4-yl)-6-fluoro-3-morpholino-7-(2,3,5-trifluorophenyl)thieno[3,2-b]pyridine-2-carboxamide] | 0.1 to 1 (≈ 0.184 to 1.84 µM) | 100 to 1000 | < 0.1 | < 100 | < 0.1 | 
Cc1cnc2c(C(C)C)c(C(=O)NN3CCOc4ccccc43)nn2c1-c1cc(F)cc(F)c1F [Example 9.1, N-(2,3-Dihydro-4H-benzo[b][1,4]oxazin-4-yl)-3-isopropyl-6-methyl-7-(2,3,5-trifluorophenyl)-pyrazolo[1,5-a]pyrimidine-2-carboxamide] | > 1 | > 1000 | 0.1 to 1 (≈ 0.208 to 2.08 µM) | > 1000 | < 0.1 | 
CC(C)c1c(C(=O)NN2CCOc3ccccc32)sc2c(-c3cc(F)cc(F)c3F)c(F)cnc12 [Example 6.3, N-(2,3-Dihydro-4H-benzo[b][1,4]oxazin-4-yl)-6-fluoro-3-isopropyl-7-(2,3,5-trifluoro-phenyl)thieno[3,2-b]pyridine-2-carboxamide] |  | < 100 | < 0.1 | < 100 | < 0.1 | < 0.1
CC(C)c1c(C(=O)NN2CCOc3ccccc32)sc2c(-c3cc(F)cc(F)c3F)cccc12 [Example 1.1, N-(2,3-dihydro-1,4-benzoxazin-4-yl)-3-isopropyl-7-(2,3,5-trifluorophenyl)benzo-thiophene-2-carboxamide] | 0.1 to 1 (≈ 0.207 to 2.07 µM) | > 1000 | < 0.1 | < 100 | < 0.1 | 
CC(C)c1c(C(=O)NN2CCOc3ccccc32)n(C)c2c(-c3cc(F)cc(F)c3F)cccc12 [Example 17.2, N-(2,3-Dihydro-4H-benzo[b][1,4]oxazin-4-yl)-3-isopropyl-1-methyl-7-(2,3,5-trifluoro-phenyl)-1H-indole-2-carboxamide] | > 1 | > 1000 | > 1 | > 1000 |  | 
CC(C)c1c(C(=O)NN2CCOc3ccccc32)sc2c(-c3cc(F)cc(F)c3F)ccnc12 [Example 6.7, N-(2,3-Dihydro-4H-benzo[b][1,4]oxazin-4-yl)-3-isopropyl-7-(2,3,5-trifluorophenyl)-thieno [3,2-b]pyridine-2-carboxamide] |  | < 100 | < 0.1 | < 100 | < 0.1 | 
CC(C)n1c(C(=O)NN2CCOc3ccccc32)nc2c(-c3cc(F)cc(F)c3F)nccc21 [Example 12.1, N-(2,3-Dihydro-4H-benzo[b][1,4]oxazin-4-yl)-1-isopropyl-4-(2,3,5-trifluorophenyl)-1H-imidazo[4,5-c]pyridine-2-carboxamide] | > 1 | > 1000 | < 0.1 | > 1000 | 0.1 to 1 (≈ 0.214 to 2.14 µM) | 
O=C(NN1CCOc2ccccc21)c1sc2c(-c3cc(F)cc(F)c3F)ccnc2c1N1CC(F)C1 [Example 6.6, N-(2,3-dihydro-4H-benzo[b][1,4]oxazin-4-yl)-3-(3-fluoroazetidin-1-yl)-7-(2,3,5-trifluorophenyl)thieno[3,2-b]pyridine-2-carboxamide] | > 1 | > 1000 | 0.1 to 1 (≈ 0.194 to 1.94 µM) | 100 to 1000 | < 0.1 | 
CC(C)c1c(C(=O)NN2CCOc3ccccc32)cnc2c1cnn2-c1cc(F)cc(F)c1F [Example 10.1, N-(2,3-Dihydro-4H-benzo[b][1,4]oxazin-4-yl)-4-isopropyl-1-(2,3,5-trifluorophenyl)-1H-pyrazolo[3,4-b]pyridine-5-carboxamide] | > 1 | > 1000 | < 0.1 | 100 to 1000 | 0.1 to 1 (≈ 0.214 to 2.14 µM) | 
CC(C)c1c(C(=O)NN2CCOc3ccccc32)sc2c(-c3cc(F)cc(F)c3F)nccc12 [Example 2.2, N-(2,3-Dihydro-1,4-benzoxazin-4-yl)-3-isopropyl-7-(2,3,5-trifluorophenyl)-thieno[2,3-c]pyridine-2-carboxamide] | 0.1 to 1 (≈ 0.207 to 2.07 µM) | 100 to 1000 | < 0.1 | < 100 | < 0.1 | 
CN(C)c1c(C(=O)NN2CCOc3ccccc32)cnc2c1ccn2-c1cc(F)cc(F)c1F [Example 18.1, N-(2,3-Dihydro-4H-benzo[b][1,4]oxazin-4-yl)-4-(dimethylamino)-1-(2,3,5-trifluorophenyl)-1H-pyrrolo[2,3-b]pyridine-5-carboxamide] | > 1 | > 1000 | < 0.1 | 100 to 1000 |  | 
